{
  "source": "patent US7659304B2",
  "about": "“Tryptophan derivative and application thereof” (priority 2005, dated 2010)",
  "key": {"osteoblasts [1]": {"test_system": "osteoblasts", "assay": "Influence on osteoblasts: alkaline phosphatase (ALP) activity in cultured goldfish scales", "format": "cell-based", "conditions": "for ALP activity: Amount of para-nitrophenol produced (mean ± standard error): 10^−6 M, scales cultured at 25° C. for 6 hours, control 1.37 ± 0.18", "method": "The influence of the tryptophan derivatives on bone cells was tested according to a method described in N. Suzuki and A. Hattori, J. Pineal Res., 33, 253-258 (2002). Required pieces of scales were ablated from female goldfish (body weight: around 30 g) under anesthesia with MS222 (ethyl 3-aminobenzoate, methane sulfonic acid salt) (Aldrich). The scales were washed twice with an Eagle's minimum essential medium (Dainippon Pharmaceutical Co., Ltd.) containing 1% antibiotic (penicillin-streptomycin mixture). The same medium was added at 1 ml/well to a 24-well plate. The scales were added at several pieces (usually eight)/well thereto. Each tryptophan derivative was added at a concentration of 10^−6 M to each well. Subsequently, these scales were cultured at 25° C. for 6 hours. A tryptophan derivative-free group (control) was also prepared to compare the effects on bone cells. In this test, two groups, one for osteoclasts and the other for osteoblasts, were used for the tryptophan derivatives and compared them with the control. To ensure the obtained results, the duplicate test was performed. Thus, in the 24-well plate, 6 tryptophan derivatives can be examined. After culture, the medium was removed. The scales were fixed by the addition of 0.05 M cacodylic acid buffer (pH 7.4) containing 10% formalin. These scales were stored in 0.05 M cacodylic acid buffer at 4° C. until enzyme activity measurement. • (1) […] The scales treated by fixation were moved and weighed. After measurement, the scales were put into a 96-well microplate. To each well, 2001 of 100 mM tris-HCl buffer (pH 9.5) containing 10 mM para-nitrophenol phosphate (substrate), 1 mM magnesium chloride, and 0.1 mM zinc chloride was added. Reaction was performed at 25° C. for 15 minutes and terminated by the addition of a 3 M sodium hydroxide aqueous solution (50 μl). Then, 150 μl of the solution after the completion of reaction was transferred to another microplate. The amount of p-NP produced by ALP was measured with a spectrophotometer (405 nm) to determine the activity."}, "[2]": {"test_system": "bone metabolism of ovariectomized model rat", "assay": "Effect on bone metabolism of ovariectomized model rat (femur pQCT)", "format": "in vivo", "conditions": "OVX rats, 0.17 mg/rat by gavage once a day for 6 weeks", "method": "A test substance was the compound No. 4 ((S)-(+)-N-acetyl-2,4,6-tribromo-5-methoxytryptophan methyl ester), which was a white powder having a molecular weight of 527, and was stored at room temperature. Commercially available dimethyl sulfoxide (DMSO, Wako Pure Chemical Industries, Ltd.) was purchased as a solvent and stored at room temperature. • 2. Method for Preparing Test Substance\nThe solution of the test substance was administered in a volume of 100 μL/rat in consideration of the toxicity of the solvent. For a dose of 0.17 mg of the test substance (compound No. 4)/rat, 86.6 mg of the test substance was weighed and dissolved in 50.9 mL of the solvent (0.17 mg/0.1 mL). • 3. Animal Used and Raising Conditions\nFive-week-old female SPF SD (Crl:SD) rats were obtained from Charles River Laboratories Japan, Inc. After seven-day acclimation and quarantine, 6-week-old ovariectomized models were prepared. Administration was performed from the day following model preparation.\nThe animals were raised in the rat/mouse room of a test laboratory set to a temperature of 24±3° C., a humidity of 50±20%, the number of ventilations of approximately 10 to 20 times/hour, a lighting time of 12 hours/day (8:00 light on, 20:00 light off), and an illuminance of 150 to 300 Lux. • 4. Administration Method\nThe test substance was administered once a day for 6 weeks by gavage administration to the rats without anesthesia under non-fasting by use of a feeding needle made of a metal and a syringe barrel. In this context, 1 week is defined as 7 days, and the day following ovariectomy when the administration was initiated is defined as Day 1. The amount of the solution administered was set to 0.1 mL/rat.\nThe bone densities of the left femurs were measured using a peripheral bone density measurement apparatus PQCT (abbreviation of peripheral Quantitative Computed Tomography, XCT-Research SA+, Stratec). For cancellous bone parameter measurement, the metaphyseal region was sliced at a distance of 3 mm from the distal growth cartilage. Alternatively, for cortical bone parameter measurement, the diaphyseal region was sliced at a distance of 13 mm therefrom. The measurement parameters were a bone density (total density and cancellous bone), an area (total area and cancellous bone), and SSI (Stress Strain Index) for the metaphyseal region and were the bone density, area, and thickness of the cortical bone, a periosteal circumference length, an endosteal circumference length, and SSI for the diaphyseal region. Software used was Rev.5.50e."}, "osteoclasts [3]": {"test_system": "osteoclasts", "assay": "Influence on osteoclasts: tartrate-resistant acid phosphatase (TRAP) activity in cultured goldfish scales", "format": "cell-based", "conditions": "for TRAP activity: Amount of para-nitrophenol produced (mean ± standard error): 10^−6 M, scales cultured at 25° C. for 6 hours, control 0.700 ± 0.041", "method": "The influence of the tryptophan derivatives on bone cells was tested according to a method described in N. Suzuki and A. Hattori, J. Pineal Res., 33, 253-258 (2002). Required pieces of scales were ablated from female goldfish (body weight: around 30 g) under anesthesia with MS222 (ethyl 3-aminobenzoate, methane sulfonic acid salt) (Aldrich). The scales were washed twice with an Eagle's minimum essential medium (Dainippon Pharmaceutical Co., Ltd.) containing 1% antibiotic (penicillin-streptomycin mixture). The same medium was added at 1 ml/well to a 24-well plate. The scales were added at several pieces (usually eight)/well thereto. Each tryptophan derivative was added at a concentration of 10^−6 M to each well. Subsequently, these scales were cultured at 25° C. for 6 hours. A tryptophan derivative-free group (control) was also prepared to compare the effects on bone cells. In this test, two groups, one for osteoclasts and the other for osteoblasts, were used for the tryptophan derivatives and compared them with the control. To ensure the obtained results, the duplicate test was performed. Thus, in the 24-well plate, 6 tryptophan derivatives can be examined. After culture, the medium was removed. The scales were fixed by the addition of 0.05 M cacodylic acid buffer (pH 7.4) containing 10% formalin. These scales were stored in 0.05 M cacodylic acid buffer at 4° C. until enzyme activity measurement. • (1) Influence on Osteoclasts: Tartrate-Resistant Acid Phosphatase (TRAP) Activity Measurement The scales treated by fixation were moved and weighed. After measurement, the scales were put into a 96-well microplate. To each well, 2001 of 100 mM acetate buffer (pH 5.3) containing 20 mM tartrate and 10 mM para-nitrophenol phosphate (substrate) was added. Reaction was performed at 25° C. for 20 minutes and subsequently terminated by the addition of a 3 M sodium hydroxide aqueous solution (50±1). Then, […] of the solution after the completion of reaction was transferred to another microplate. The amount of para-nitrophenol (p-NP) produced by TRAP was measured with a spectrophotometer (405 nm). The osteoclast activity was indicated as the amount of p-NP produced by the decomposition of para-nitrophenol phosphate per g of scale per minute."}, "osteoclasts [4]": {"test_system": "osteoclasts", "conditions": "literature report; cited from earlier work"}, "osteoblasts [5]": {"test_system": "osteoblasts", "conditions": "literature report; cited from earlier work"}},
  "data": [
    {"smiles": "COC(=O)[C@H](Cc1c(Br)[nH]c2cc(Br)c(OC)cc12)NC(C)=O", "note": "[Compound 2, (S)-(+)-N-acetyl-2,6-dibromo-5-methoxytryptophan methyl ester]", "values": [
      {"measurement": "melting point", "result": "174 to 175", "unit": "°C"}
    ]},
    {"smiles": "COC(=O)[C@H](Cc1c(Br)[nH]c2c(Br)cc(OC)c(Br)c12)NC(C)=O", "note": "[Compound 3, (S)-(+)-N-acetyl-2,4,7-tribromo-5-methoxytryptophan methyl ester]", "values": [
      {"measurement": "melting point", "result": "218 to 220", "unit": "°C"}
    ]},
    {"smiles": "COC(=O)[C@H](Cc1c(Br)[nH]c2cc(Br)c(OC)c(Br)c12)NC(C)=O", "note": "[Compound 4, (S)-(+)-N-acetyl-2,4,6-tribromo-5-methoxytryptophan methyl ester]", "values": [
      {"measurement": "ALP activity: Amount of para-nitrophenol produced (mean ± standard error)", "setting": "osteoblasts [1]", "result": "2.62 ± 0.20 nmol/g of scale/min"},
      {"measurement": "melting point", "result": "198 to 199", "unit": "°C"},
      {"measurement": "bone density of the cancellous bone (metaphyseal region) compared with OVX + Vehicle group (in words)", "setting": "[2]", "result": "increased"},
      {"measurement": "change in the diaphyseal region compared with OVX + Vehicle group (in words)", "setting": "[2]", "result": "no change"},
      {"measurement": "total bone density of the metaphyseal region compared with OVX + Vehicle group (in words)", "setting": "[2]", "result": "increased"},
      {"measurement": "Diaphyseal region SSI Polar", "setting": "[2]; left femur, OVX + Vehicle 6.753 ± 0.380", "result": "6.877 ± 0.605"},
      {"measurement": "Diaphyseal region Endosteal circumference length", "setting": "[2]; left femur, OVX + Vehicle 8.360 ± 0.467", "result": "8.260 ± 0.666", "unit": "mm"},
      {"measurement": "Metaphyseal region Area Cancellous bone", "setting": "[2]; left femur, OVX + Vehicle 9.47 ± 1.52", "result": "7.44 ± 0.47", "unit": "mm^2"},
      {"measurement": "Metaphyseal region SSI Polar", "setting": "[2]; left femur, OVX + Vehicle 9.801 ± 0.574", "result": "11.474 ± 0.346"},
      {"measurement": "Diaphyseal region Periosteal circumference length", "setting": "[2]; left femur, OVX + Vehicle 11.819 ± 0.333", "result": "11.729 ± 0.455", "unit": "mm"},
      {"measurement": "Metaphyseal region Area Total area", "setting": "[2]; left femur, OVX + Vehicle 21.69 ± 1.61", "result": "23.67 ± 1.34", "unit": "mm^2"},
      {"measurement": "Metaphyseal region Bone density Cancellous bone", "setting": "[2]; left femur, OVX + Vehicle 192.9 ± 24.6", "result": "253.4 ± 2.9", "unit": "mg/mL"},
      {"measurement": "Metaphyseal region Bone density Total density", "setting": "[2]; left femur, OVX + Vehicle 473.1 ± 29.3", "result": "520.4 ± 31.7", "unit": "mg/mL"},
      {"measurement": "Diaphyseal region Thickness", "setting": "[2]; cortical bone, left femur, OVX + Vehicle 0.551 ± 0.021", "result": "0.552 ± 0.038", "unit": "mm"},
      {"measurement": "Diaphyseal region Area", "setting": "[2]; cortical bone, left femur, OVX + Vehicle 5.55 ± 0.02", "result": "5.50 ± 0.17", "unit": "mm^2"},
      {"measurement": "Diaphyseal region Bone density", "setting": "[2]; cortical bone, left femur, OVX + Vehicle 1265.7 ± 15.9", "result": "1254.9 ± 14.6", "unit": "mg/mL"},
      {"measurement": "TRAP activity: Amount of para-nitrophenol produced (mean ± standard error)", "setting": "osteoclasts [3]", "result": "0.699 ± 0.064 nmol/g of scale/min"}
    ]},
    {"smiles": "COC(=O)[C@H](Cc1c(Br)n(C(=O)OC(C)(C)C)c2cc(Br)c(OC)c(Br)c12)NC(C)=O", "note": "[Compound 5, (S)-(+)-N-acetyl-2,4,6-tribromo-1-t-butoxycarbonyl-5-methoxytryptophan methyl ester]", "values": [
      {"measurement": "ALP activity: Amount of para-nitrophenol produced (mean ± standard error)", "setting": "osteoblasts [1]", "result": "2.48 ± 0.42 nmol/g of scale/min"},
      {"measurement": "TRAP activity: Amount of para-nitrophenol produced (mean ± standard error)", "setting": "osteoclasts [3]", "result": "0.747 ± 0.063 nmol/g of scale/min"}
    ]},
    {"smiles": "C=CCn1c(Br)c(C[C@H](NC(C)=O)C(=O)OC)c2c(Br)c(OC)c(Br)cc21", "note": "[Compound 6, (S)-(+)-N-acetyl-1-allyl-2,4,6-tribromo-5-methoxytryptophan methyl ester]", "values": [
      {"measurement": "ALP activity: Amount of para-nitrophenol produced (mean ± standard error)", "setting": "osteoblasts [1]", "result": "2.39 ± 0.40 nmol/g of scale/min"},
      {"measurement": "TRAP activity: Amount of para-nitrophenol produced (mean ± standard error)", "setting": "osteoclasts [3]", "result": "0.882 ± 0.106 nmol/g of scale/min"}
    ]},
    {"smiles": "C#CCn1c(Br)c(C[C@H](NC(C)=O)C(=O)OC)c2c(Br)c(OC)c(Br)cc21", "note": "[Compound 7, (S)-(+)-N-acetyl-2,4,6-tribromo-5-methoxy-1-propargyltryptophan methyl ester]", "values": [
      {"measurement": "ALP activity: Amount of para-nitrophenol produced (mean ± standard error)", "setting": "osteoblasts [1]", "result": "2.50 ± 0.51 nmol/g of scale/min"},
      {"measurement": "TRAP activity: Amount of para-nitrophenol produced (mean ± standard error)", "setting": "osteoclasts [3]", "result": "0.838 ± 0.056 nmol/g of scale/min"}
    ]},
    {"smiles": "COC(=O)[C@H](Cc1c(Br)n(Cc2ccccc2)c2cc(Br)c(OC)c(Br)c12)NC(C)=O", "note": "[Compound 8, (S)-(+)-N-acetyl-1-benzyl-2,4,6-tribromo-5-methoxytryptophan methyl ester]", "values": [
      {"measurement": "ALP activity: Amount of para-nitrophenol produced (mean ± standard error)", "setting": "osteoblasts [1]", "result": "1.17 ± 0.32 nmol/g of scale/min"},
      {"measurement": "TRAP activity: Amount of para-nitrophenol produced (mean ± standard error)", "setting": "osteoclasts [3]", "result": "0.829 ± 0.047 nmol/g of scale/min"}
    ]},
    {"smiles": "COc1ccc2[nH]cc(CCNC(C)=O)c2c1", "note": "[Melatonin, N-acetyl-5-methoxytryptamine, reference compound]", "values": [
      {"measurement": "ALP activity: Amount of para-nitrophenol produced (mean ± standard error)", "setting": "osteoblasts [1]", "result": "1.06 ± 0.17 nmol/g of scale/min"},
      {"measurement": "action on osteoblasts (in words)", "setting": "osteoblasts [1]; conclusion from Table 2", "result": "inhibitory"},
      {"measurement": "action on osteoclasts (in words), reported in Non-Patent Document 1", "setting": "osteoclasts [4]", "result": "inhibitory"},
      {"measurement": "action on osteoblasts (in words), reported in Non-Patent Document 1", "setting": "osteoblasts [5]", "result": "inhibitory"},
      {"measurement": "TRAP activity: Amount of para-nitrophenol produced (mean ± standard error)", "setting": "osteoclasts [3]", "result": "0.467 ± 0.052 nmol/g of scale/min"},
      {"measurement": "action on osteoclasts (in words)", "setting": "osteoclasts [3]; conclusion from Table 1", "result": "inhibitory"}
    ]}
  ]
}
